The values that follow come from ChEMBL document CHEMBL4476866, “Pyrrol-1-yl benzoic acid derivatives useful as myc inhibitors” (2015).

Structures are written as SMILES.

The subject of one experiment is NCI-H2171. Kind of experiment: Cytotoxic activity against human NCI-H2171 cells assessed as reduction in cell viability incubated for 3 days by ATPlite assay. In kind it is functional, cell-based.
For the next experiment, the system named is MM1.S. The experiment can be described thus: Cytotoxic activity against human MM1S cells assessed as reduction in cell viability incubated for 3 days by ATPlite assay. In kind it is functional, cell-based. A general note: In ATP-based viability assays light output follows the ATP content of the culture.
Experiment [1] has as its target Myc proto-oncogene protein (Homo sapiens, UniProt P01106). The experiment can be described thus: Inhibition of human c-Myc assessed as reduction in c-Myc/Max/Ebox DNA complex formation using pre-formed complex of c-Myc and biotinylated DNA containing single Ebox-sequence followed by compound addition and further addition of his6-tagged c-Max and incubated for 2 hrs by AlphaScreen assay. A general note: In Alpha technology, singlet oxygen from a donor bead excites a nearby acceptor bead.

The mark [2] stands for this setting: Homo sapiens, NCI-H2171, 72 h, read-out: EC50.
Setting [3] is: Homo sapiens, MM1.S, 72 h, read-out: EC50.

Sequence of Myc proto-oncogene protein (P01106 whole entry): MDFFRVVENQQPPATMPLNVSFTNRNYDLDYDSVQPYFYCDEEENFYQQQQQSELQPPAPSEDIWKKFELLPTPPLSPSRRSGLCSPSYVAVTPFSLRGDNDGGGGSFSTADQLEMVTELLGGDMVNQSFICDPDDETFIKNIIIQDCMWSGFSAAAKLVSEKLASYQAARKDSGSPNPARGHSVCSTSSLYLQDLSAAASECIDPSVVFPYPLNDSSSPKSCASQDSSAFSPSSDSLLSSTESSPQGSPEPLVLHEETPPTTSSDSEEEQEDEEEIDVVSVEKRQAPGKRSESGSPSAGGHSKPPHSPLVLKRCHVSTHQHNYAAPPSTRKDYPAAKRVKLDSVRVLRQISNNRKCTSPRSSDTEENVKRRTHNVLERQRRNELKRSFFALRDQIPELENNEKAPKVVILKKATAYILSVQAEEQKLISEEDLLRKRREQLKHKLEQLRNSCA

As for `Cc1ccc(C)n1-c1cc(C(=O)N/N=C/c2cccnc2)ccc1C(=O)O`, the EC50 – broadly, the concentration at which the effect is half-maximal – in the experiment with NCI-H2171 (nci-h2171) was “Not Active”. Consider `Cc1ccc(C)n1-c1ccc(C(=O)O)c(O)c1`, for which the EC50 in the experiment on NCI-H2171 (setting [2]) is 189 to 517 µM; with MM1.S (setting [3]), 517 to 1440 µM. For the molecule `Cc1ccc(C)n1-c1cc(C(=O)N/N=C/c2cccc(C(=O)O)c2)ccc1C(=O)O`, the EC50 result with NCI-H2171 (nci-h2171) and in the experiment on MM1.S (mm1.s) was “Not Active” throughout. Regarding `Cc1ccc(C)n1-c1cc(C(=O)N/N=C/c2ccc3nccnc3c2)ccc1C(=O)O`, the EC50 entry in the experiment with NCI-H2171 (nci-h2171) and in the experiment on MM1.S (mm1.s) was “Not Active” each time.

Turning to `Cc1c2ccccc2c(C)n1-c1ccccc1C(=O)O`, the EC50 entry in the experiment on NCI-H2171 (nci-h2171) and in the experiment with MM1.S (mm1.s) was “Not Active” throughout. `COC(=O)c1ccc(-n2c(C)ccc2C)cc1O`: the EC50 result with NCI-H2171 (nci-h2171) and with MM1.S (mm1.s) was “Not Active” each time. Take `Cc1ccc(C)n1-c1cc(C(=O)N/N=C/c2ccc(O)cc2)ccc1C(=O)O`: the EC50 entry in the experiment with NCI-H2171 (nci-h2171) and in the experiment with MM1.S (mm1.s) was “Not Active” throughout.

As to `Cc1ccc(C)n1-c1cc(C(=O)N2CCOCC2)ccc1C(=O)O`, the EC50 result in the experiment with MM1.S (mm1.s) is reported as “Not Active”. As to `Cc1ccc(C)n1-c1cc(C(=O)N/N=C/c2ccc(-c3cncnc3)cc2)ccc1C(=O)O`, the EC50 entry with NCI-H2171 (nci-h2171) and in the experiment on MM1.S (mm1.s) was “Not Active” throughout. As to `Cc1ccc(C)n1-c1cc(C(=O)N/N=C/c2cccc3ncccc23)ccc1C(=O)O`, the EC50 entry in the experiment with MM1.S (mm1.s) is listed as “Not Active”. With `Cc1ccc(C)n1-c1cc(C(=O)N/N=C/c2cc(F)c(F)c(F)c2)ccc1C(=O)O`, the EC50 entry in the experiment on MM1.S (mm1.s) is listed as “Not Active”. Regarding `Cc1ccc(C)n1-c1cc(C(=O)NN)ccc1C(=O)O`, the EC50 was in the range of 0.00363 to 43.7 µM in the experiment on NCI-H2171 (nci-h2171, read-out: EC50) and 625 to 1240 µM in the experiment on MM1.S (setting [3]). As to `CN(C)c1ccc(/N=N/c2ccccc2C(=O)O)cc1`, the EC50 result with MM1.S (mm1.s) is given as “Not Active”. For the molecule `CC(=O)Oc1cc(-n2c(C)ccc2C)ccc1C(=O)O`, the IC50 (commonly the midpoint of a concentration-inhibition curve) in experiment [1] was “Not Active”. Still for that read-out and setting: under `COC(=O)c1ccc(-n2cccc2)cc1O` stands “Not Active”.

`Cc1ccc(C)n1-c1cc(C(=O)NCCc2cccc(C(=O)O)c2)ccc1C(=O)O`: in experiment [1] (read-out: IC50), the IC50 was 7.27 µM. For the molecule `CC(=O)OCOC(=O)c1ccccc1N1CCN(C)CC1`, the IC50 entry in experiment [1] is given as “Not Active”. On to `Cc1ccc(C)n1-c1cc(C(=O)N/N=C/c2cc(C(=O)O)ccc2F)ccc1C(=O)O`, for which the EC50 result in the experiment on NCI-H2171 (nci-h2171) is “Not Active”. Take `Cc1ccc(C)n1-c1cc(C(=O)N/N=C/c2c[nH]cn2)ccc1C(=O)O`: the half-maximal effective concentration (EC50) result with NCI-H2171 (nci-h2171) and in the experiment on MM1.S (mm1.s) was “Not Active” each time.

Regarding `COc1ccc(/C=N/NC(=O)c2ccc(C(=O)O)c(-n3c(C)ccc3C)c2)c(OC)c1`, the EC50 result in the experiment with MM1.S (mm1.s) is on record as “Not Active”. For the molecule `Cc1ccc(C)n1-c1ccc(C(=O)O)c([N+](=O)[O-])c1`, the EC50 entry with NCI-H2171 (nci-h2171) was “Not Active”. Take `Cc1ccc(C)n1-c1cc(C(=O)N/N=C\c2cc(F)c(C(=O)O)c(F)c2)ccc1C(=O)O`: the EC50 entry with NCI-H2171 (nci-h2171) and with MM1.S (mm1.s) was “Not Active” in each case. `Cc1ccc(C)n1-c1cc(C(=O)N/N=C/c2c[nH]c3ccc(C#N)cc23)ccc1C(=O)O`: the EC50 in the experiment on NCI-H2171 (setting [2]) was 3240 µM; with MM1.S (setting [3]), 5.75 µM.

As for `Cc1ccc(C)n1-c1cc(C(=O)NNC(=O)c2cccc(C(=O)O)c2)ccc1C(=O)O`, the EC50 entry with NCI-H2171 (nci-h2171) and in the experiment on MM1.S (mm1.s) was “Not Active” in each case.

In the case of `Cc1c(C)c(C)n(-c2ccccc2C(=O)O)c1C`, the IC50 in experiment [1] (read-out: IC50) came out at 83.4 µM. On to `Cc1ccc(C)n1-c1ccccc1C(N)=O`, for which, in experiment [1], the IC50 entry was “Not Active”. In the case of `CC(=O)OCOC(=O)c1ccccc1-n1c(C)ccc1C`, the EC50 was in the range of 20.7 to 29.9 µM with NCI-H2171 (setting [2]) and 52.3 to 71.4 µM in the experiment on MM1.S (setting [3]). With `Cc1ccc(C)n1-c1cc(C(=O)N/N=C\c2cccc(C(=O)O)c2)ccc1C(=O)O`, the EC50 entry in the experiment on NCI-H2171 (nci-h2171) and in the experiment with MM1.S (mm1.s) was “Not Active” each time.

With `Cc1ccc(C)n1-c1cc(C(=O)N/N=C\c2ccc(C(=O)O)s2)ccc1C(=O)O`, the EC50 result with MM1.S (mm1.s) is “Not Active”.

In the case of `O=C(O)c1ccccc1-n1c2ccccc2c2ccccc21`, in experiment [1], the IC50 entry is recorded as “Not Active”. Consider `Cc1ccc(C)n1-c1cc(C(=O)N/N=C/c2ccc(C(=O)O)o2)ccc1C(=O)O`, for which the EC50 result in the experiment on NCI-H2171 (nci-h2171) and in the experiment on MM1.S (mm1.s) was “Not Active” in each case.

As to `CC(=O)OCOC(=O)c1ccc(C(=O)N/N=C/c2ccc(O)c(O)c2O)cc1-n1c(C)ccc1C`, the EC50 was found to be 2.23 µM in the experiment on NCI-H2171 (setting [2]) and 14.8 µM in the experiment with MM1.S (setting [3]). In the case of `Cc1ccc(C)n1-c1cc(C(=O)N/N=C/c2ccc3cccnc3n2)ccc1C(=O)O`, in the experiment with NCI-H2171 (nci-h2171), the EC50 result is on record as “Not Active”. As to `Cc1ccc(C)n1-c1ccc(Cl)cc1C(=O)O`, the EC50 result in the experiment with MM1.S (mm1.s) is “Not Active”.

Regarding `Cc1ncc(CO)c(/C=N/NC(=O)c2ccc(C(=O)O)c(-n3c(C)ccc3C)c2)c1O`, in the experiment with MM1.S (mm1.s), the EC50 entry is reported as “Not Active”.

Consider `Cc1ccc(C)n1-c1cc(C(=O)N/N=C/c2cccc(B(O)O)c2)ccc1C(=O)O`, for which the EC50 result in the experiment with NCI-H2171 (nci-h2171) and in the experiment on MM1.S (mm1.s) was “Not Active” each time. Regarding `Cc1ccc(C)n1-c1c(C(=O)O)cccc1[N+](=O)[O-]`, the IC50 entry in experiment [1] is reported as “Not Active”. For `Cc1ccc(C)n1-c1cc(C(=O)N/N=C/c2ccc(N(C)C)cc2)ccc1C(=O)O`, in the experiment on NCI-H2171 (nci-h2171), the EC50 result was “Not Active”. In the case of `Cc1cc(C(=O)N/N=C/c2ccccc2)c(C)n1-c1ccccc1C(=O)O`, the EC50 result in the experiment on NCI-H2171 (nci-h2171) and in the experiment on MM1.S (mm1.s) was “Not Active” in each case. Regarding `Cc1ccc(C)n1-c1cc(C(=O)N/N=C\c2ccc(S(=O)(=O)O)cc2)ccc1C(=O)O`, the EC50 entry in the experiment on MM1.S (mm1.s) is listed as “Not Active”. `Cc1ccc(C)n1-c1cc(C(=O)N/N=C/c2ncc[nH]2)ccc1C(=O)O`: the EC50 entry with MM1.S (mm1.s) is recorded as “Not Active”. Take `Cc1ccc(C)n1-c1cccc(C(=O)c2ccccc2)c1C(=O)O`: the EC50 entry with MM1.S (mm1.s) is given as “Not Active”. Same read-out and setting: the result for `Cc1ccc(C)n1-c1cc(C(=O)N/N=C/c2c[nH]c3cc(F)ccc23)ccc1C(=O)O` reads “Not Active”. For the molecule `CC(=O)OCOC(=O)c1ccccc1-n1ccnc1C`, the IC50 result in experiment [1] is “Not Active”. On to `COc1ncc(/C=N/NC(=O)c2ccc(C(=O)O)c(-n3c(C)ccc3C)c2)c(OC)n1`, for which the EC50 entry in the experiment with MM1.S (mm1.s) is “Not Active”. For the molecule `Cc1cc(C)c2c(=O)c(/C=N/NC(=O)c3ccc(C(=O)O)c(-n4c(C)ccc4C)c3)coc2c1`, the EC50 result with NCI-H2171 (nci-h2171) is recorded as “Not Active”. As to `Cc1ccc(C)n1-c1cc(C(=O)N/N=C/c2ccc(S(=O)(=O)O)o2)ccc1C(=O)O`, the EC50 entry with MM1.S (mm1.s) was “Not Active”. Take `Cc1cc(C(=O)O)ccc1-n1c(C)ccc1C`: the EC50 entry with MM1.S (mm1.s) was “Not Active”.

With `Cc1ccc(C)n1-c1cc(C(=O)N/N=C/c2ccc3ccccc3n2)ccc1C(=O)O`, the EC50 entry in the experiment on NCI-H2171 (nci-h2171) is given as “Not Active”. In the case of `Cc1ccc(C)n1-c1cc(C(=O)N/N=C\c2ccc(O)c(F)c2)ccc1C(=O)O`, the EC50 result in the experiment on NCI-H2171 (nci-h2171) and in the experiment with MM1.S (mm1.s) was “Not Active” in each case. On to `Cc1ccc(C)n1-c1ncccc1C(=O)O`, for which the 50% effective concentration (EC50) entry with MM1.S (mm1.s) was “Not Active”. As to `Cc1ccc(C)n1-c1cnccc1C(=O)O`, the EC50 result with NCI-H2171 (nci-h2171) is given as “Not Active”.

For `Cc1ccc(C)n1-c1cc(C(=O)N/N=C/c2c[nH]c3ccc(F)cc23)ccc1C(=O)O`, the EC50 result in the experiment with NCI-H2171 (nci-h2171) and in the experiment on MM1.S (mm1.s) was “Not Active” each time. With `CC(=O)OCOC(=O)c1ccc(-n2c(C)ccc2C)cc1O`, the figures for the EC50 in the experiment with NCI-H2171 (setting [2]) and in the experiment with MM1.S (setting [3]) were 2.8 to 66.1 µM and 11 to 446 µM, respectively. With `CN1CCN(c2ccccc2C(=O)O)CC1`, in the experiment on MM1.S (mm1.s), the EC50 entry is given as “Not Active”. Turning to `CC(=O)OCOC(=O)c1ccc(C(=O)N/N=C/c2c[nH]cn2)cc1-n1c(C)ccc1C`, in the experiment on MM1.S (mm1.s), the EC50 result was “Not Active”. The same measure, in the same setting: under `Cc1ccc(C)n1-c1ccc(C(=O)O)cc1O` stands “Not Active”.
